Values quoted from earlier work in patent publication US20050250746A1, “Premenstrual dysphoric disorder medication” (priority 2004, published 2005).

Key:
[1] = test system: Severe Premenstrual Syndrome
[2] = test system: Severe Premenstrual Syndrome or Premenstrual Dysphoric Disorder; conditions: continuous or intermittent dosing
[3] = test system: Premenstrual Syndrome; conditions: review of published research

Compound: Cc1nnc2n1-c1ccc(Cl)cc1C(c1ccccc1)=NC2 [alpazolam, Alprazolam]
- reduction in daily symptom report scores ([1]; double-blind, versus placebo): 50%

Compound: CN[C@H]1CC[C@@H](c2ccc(Cl)c(Cl)c2)c2ccccc21 [seratraline, Sertraline]
- improvement versus placebo group [2]: improved significantly more than the placebo group

Compound: CC(=O)[C@H]1CC[C@H]2[C@@H]3CCC4=CC(=O)CC[C@]4(C)[C@H]3CC[C@]12C [progesterone]
- effectiveness of progesterone therapy versus placebo ([1]; oral progesterone): no better than placebo
- difference between progesterone and placebo [3]: no clinically important difference between progesterone and placebo
